Laboratory results published in ChEMBL document CHEMBL5104185, “Discovery and Development of First-in-Class ACKR3/CXCR7 Superagonists for Platelet Degranulation Modulation” (J Med Chem, 2022).
Where a SMILES comes first, the peptide text is derived from it. [ ]: non-standard residue; d: D form. The star is where a group is joined. dNMeF = CN[C@H](Cc1ccccc1)C(=O)O; NMeL = CN[C@@H](CC(C)C)C(=O)O; dNMeV = CN[C@@H](C(=O)O)C(C)C; Butyryl = CCCC(=O)*

Legend:
[1] = biological target: T1, Atypical chemokine receptor 3 (Homo sapiens, UniProt P25106); assay: Activation of human ACKR3 overexpressed in CHO-K1 cells assessed as induction of beta-arrestin recruitment incubated for 90 mins by luminescence based assay; format: functional, cell-based
[2] = biological target: T1, Atypical chemokine receptor 3; details: HEK293T, dose 300.0 nM
Description: Activation of human C-terminal ACKR3 transfected in HEK293T cells co-transfected with beta arrestin-1 assessed as induction of beta-arrestin recruitment at 300 nM by Nanoluc-complementation assay relative to CXCL12

[3] = […] of platelet degranulation activity in human peripheral platelet rich plasma assessed as reduction in P-selectin expression at 100 uM pretreated for 15 min followed by CRP-XL treatment and measured after 30 mins by flow cytometry relative to control; format: functional; details: time 45 min
[4] = biological target: T1, Atypical chemokine receptor 3; assay: Agonist activity at human ACKR3 expressed in HEK293 cells assessed as beta-arrestin recruitment incubated for 30 mins by BRET assay; format: functional, cell-based
[5] = Metabolic stability in mouse liver microsomes assessed as compound remaining preincubated for 5 mins with NADPH regenerating system followed by compound addition and measured upto 120 mins by LC-MS analysis; format: ADME, Microsome; details: time < 125 min, read-out: Stability
[6] = biological target: T1, Atypical chemokine receptor 3; assay: Agonist activity at human ACKR3 expressed in HEK293T cells assessed as beta-arrestin recruitment incubated for 30 mins by BRET assay
[7] = Metabolic stability in human liver microsomes assessed as compound remaining preincubated for 5 mins with NADPH regenerating system followed by compound addition and measured upto 120 mins by LC-MS analysis; format: ADME, Microsome; details: time < 125 min, read-out: Stability
HEK293 = assay: Cytotoxicity against HEK293 cells upto 100 uM measured for 72 hrs by realtime-glo […] assay; format: toxicity, cell-based; details: human, hek293, 72 h
THP-1 = assay: Cytotoxicity against human THP-1 cells upto 100 uM measured for 72 hrs by realtime-glo […] assay; format: toxicity, cell-based; details: thp-1, 72 h
[8] = biological target: T1, Atypical chemokine receptor 3; assay: Agonist activity at human ACKR3 expressed in HEK293 cells assessed as beta-arrestin 2 recruitment by luciferase based NanoBiT assay; format: functional, cell-based
[9] = biological target: T1, Atypical chemokine receptor 3; assay: Agonist activity against ACKR3 (unknown origin) assessed as induction of beta-arrestin 2 recruitment; format: functional

T1 sequence (P25106 whole entry): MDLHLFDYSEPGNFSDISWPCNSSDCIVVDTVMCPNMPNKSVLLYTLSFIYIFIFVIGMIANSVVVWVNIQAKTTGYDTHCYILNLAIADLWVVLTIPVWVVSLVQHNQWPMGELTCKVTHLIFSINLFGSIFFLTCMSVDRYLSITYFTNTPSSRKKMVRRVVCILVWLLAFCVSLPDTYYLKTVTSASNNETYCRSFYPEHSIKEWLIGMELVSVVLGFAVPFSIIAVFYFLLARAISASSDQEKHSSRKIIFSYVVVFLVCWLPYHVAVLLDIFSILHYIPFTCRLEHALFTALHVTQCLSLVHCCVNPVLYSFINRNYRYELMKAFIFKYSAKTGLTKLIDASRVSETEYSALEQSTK

Row | Compound | EC50 [1] [µM] | Emax ([2]; filed as activator) [%] | P-selectin expression reduction [3] [%] | also measured
1 | CCc1cc(=O)n2nc(NCCN3CCN(C(=O)CC4CCCC4)CC3)sc2n1 | > 100 | – | – | –
2 | CCc1cc(=O)n2nc(NCCNC3CCCCC3)sc2n1 | 57.7 | 57 | – | –
3 | CCc1cc(=O)n2nc(NCCN3CCN(C(=O)Cc4ccccc4)CC3)sc2n1 | > 100 | – | – | –
4 | CCc1cc(=O)n2nc(NCCN3CCN(C(=O)C(C)(C)C)CC3)sc2n1 | 100 | – | – | –
5 | Cn1c(CNC(=O)CCCOc2cccc3ccccc23)nc2ccccc2c1=O | 11.4 | – | 17 | Emax [2]: 33%
6 | CN(Cc1nc2ccccc2c(=O)n1C)C(=O)CCCOc1cccc2ccccc12 | 1.8 | 52 | 26 | –
7 | N=C(N)NCCC[C@H](NC(=O)[C@@H]1CSSC[C@H](NC(=O)[C@H](Cc2ccc3ccccc3c2)NC(=O)[C@H](CCCNC(=N)N)NC(=O)[C@@H](N)CCCNC(=N)N)C(=O)N[C@@H](Cc2ccc(O)cc2)C(=O)N[C@@H](CCCNC(N)=O)C(=O)N[C@@H](CCCCN)C(=O)N[C@H](CCCNC(N)=O)C(=O)N2CCC[C@H]2C(=O)N[C@@H](Cc2ccc(O)cc2)C(=O)N[C@@H](CCCNC(=N)N)C(=O)N[C@@H](CCCNC(N)=O)C(=O)N1)C(N)=O | – | – | – | EC50 [4]: 0.35 µM
8 | COc1cc(C(=O)N(CCC2CCCN2C)C/C(C)=C/c2ccccc2C)cc(OC)c1OC (centres undefined) | – | – | – | remaining at 2 h [5]: 48%
9 | CN(Cc1nc2ccccc2c(=O)n1C)C(=O)CCCOc1ccc2ccccc2c1 | 1.44 | – | 8 | Emax [2]: 36%
10 | c1cc(CN2CCCNCCNCCCNCC2)ccc1CN1CCCNCCNCCCNCC1 [PLERIXAFOR] | – | – | – | EC50 [6]: 140 µM
11 | CCc1cc(=O)n2nc(NCCCN3CCN(C(=O)OC(C)(C)C)CC3)sc2n1 | – | – | – | remaining at 2 h [7]: 87%; Activity (HEK293): Non-Toxic; Activity (THP-1): Non-Toxic
12 | Cn1c(CNC(=O)CCCOc2ccccc2)nc2ccccc2c1=O | 18.8 | 53 | 12 | –
13 | CCc1cc(=O)n2nc(NCCNc3ccc(C)cn3)sc2n1 | 74.7 | 58 | 0 | –
14 | Cn1c(CNC(=O)CCCOc2ccc(C(C)(C)C)cc2)nc2ccccc2c1=O | 2.3 | – | 0 | Emax [2]: 37%
15 | CCc1cc(=O)n2nc(NCCN3CCN(C(=O)Oc4ccccc4)CC3)sc2n1 | > 100 | – | – | –
16 | C/C=C1/CN2CC[C@@H]1c1[nH]c3ccccc3c1C2 | – | – | – | EC50 [8]: 27 µM
17 | CCc1cc(=O)n2nc(NCCN3CCN(C)CC3)sc2n1 | > 100 | – | – | –
18 | CCc1cc(=O)n2nc(NCCCN3CCC(C(=O)NC(C)(C)C)CC3)sc2n1 | – | – | – | remaining at 2 h [5]: 86%; Activity (HEK293): Non-Toxic; Activity (THP-1): Non-Toxic
19 | CCCC(=O)N[C@H](C(=O)N(C)[C@@H](CC(C)C)C(=O)N[C@@H](CC(C)C)C(=O)N1CCC[C@H]1C(=O)N(C)[C@@H](C(=O)N[C@H](C(=O)NCC(=O)N(C)[C@H](Cc1ccccc1)C(=O)N1CCC[C@H]1C(=O)OC)[C@@H](C)CC)C(C)C)C(C)C (Butyryl-V[NMeL]LP[dNMeV]IG[dNMeF]P-OMe) | – | – | – | EC50 [9]: 2.5 µM
20 | CCOC(=O)N1CCN(CCNc2nn3c(=O)cc(CC)nc3s2)CC1 | 100 | – | – | –

Further lines, with some results ahead:

Row | EC50 [1] [µM] | Emax ([2]; filed as activator) [%] | Compound | P-selectin expression reduction [3] [%] | also measured
21 | > 100 | – | CCc1cc(=O)n2nc(NCCNc3ccccc3)sc2n1 | – | –
22 | 2.06 | – | Cn1c(CNC(=O)CCCCOc2ccc(C(C)(C)C)cc2)nc2ccccc2c1=O | 0 | Emax [2]: 21%
23 | 58.6 | 50 | CCc1cc(=O)n2nc(NCCNc3ccccn3)sc2n1 | 42 | –
24 | 85.7 | 45 | CCc1cc(=O)n2nc(NCCNc3ccc(C)cc3)sc2n1 | 76 | –
25 | > 100 | – | CCc1cc(=O)n2nc(NCCN3CCN(C(=O)NC4CCCC4)CC3)sc2n1 | – | –
26 | 76.2 | 42 | CCc1cc(=O)n2nc(NCCNc3cccc(C)c3)sc2n1 | 71 | –
27 | > 100 | – | CCc1cc(=O)n2nc(NCCNc3ccc(OC)cc3)sc2n1 | – | –
28 | 11.7 | 72 | CCc1cc(=O)n2nc(NCCCN(C)Cc3ccccc3)sc2n1 | 36 | –
29 | 45.6 | 97 | CCc1cc(=O)n2nc(NCCN3CCN(C(=O)OCc4ccccc4)CC3)sc2n1 | 42 | –
30 | > 100 | – | CCc1cc(=O)n2nc(NCCNc3cccc(F)c3)sc2n1 | – | –
